Results from the NIST ThermoML archive (doi:10.1016/j.tca.2016.09.007).
Numbers after ± are expanded uncertainties.

Details: Crystal; DTA

O=C1OCCO1 [ethylene carbonate]
Normal melting temperature: 38.00 ± 1 °C
